This is an account of results in patent publication US20260242372A1, “NOVEL IMIDAZOPYRIDINE AND PYRAZOLOPYRIDINE SULFONAMIDE DERIVATIVES” (Hoffmann-La Roche Inc., priority 2022, published 2026).

The target in this assay is human GPR17 short isoform (Homo sapiens, UniProt Q13304). The assay is described as follows: GPR17 cAMP assay (hGPR17 cAMP, TR-FRET, antagonist mode). The class given is cell-based. As to conditions: CHO-K1 cells stably expressing human GPR17 short isoform; EC80 of agonist MDL29,951; forskolin 15 μM; 30 min at room temperature. On the technique in general: Changes in cAMP serve as a functional read-out for many G protein-coupled receptors.
human GPR17 short isoform, sequence (Q13304 29-367): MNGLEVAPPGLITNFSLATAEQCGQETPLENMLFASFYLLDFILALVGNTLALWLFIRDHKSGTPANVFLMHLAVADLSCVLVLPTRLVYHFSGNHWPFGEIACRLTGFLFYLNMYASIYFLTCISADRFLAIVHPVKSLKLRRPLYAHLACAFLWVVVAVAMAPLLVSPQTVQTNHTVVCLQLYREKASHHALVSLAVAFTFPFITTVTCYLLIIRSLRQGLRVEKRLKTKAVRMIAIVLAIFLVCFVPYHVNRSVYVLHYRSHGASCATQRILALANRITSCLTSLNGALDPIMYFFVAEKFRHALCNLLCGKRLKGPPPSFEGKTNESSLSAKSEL
Usually IC50 stands for the concentration needed to halve the response being measured. The compound `COc1nc(OCC(F)F)c(F)cc1NS(=O)(=O)c1cnc2nc(C3COC3)ccn12` [Example 103, N-[6-(2,2-difluoroethoxy)-5-fluoro-2-methoxy-3-pyridyl]-7-(oxetan-3-yl)imidazo[1,2-a]pyrimidine-3-sulfonamide] showed a half-inhibitory concentration (IC50) of 492 nM. With `COc1nc(OCC(F)F)c(F)cc1NS(=O)(=O)c1cnn2cc(C3COC3)ccc12` [Example 104, N-[6-(2,2-difluoroethoxy)-5-fluoro-2-methoxy-3-pyridyl]-6-(oxetan-3-yl)pyrazolo[1,5-a]pyridine-3-sulfonamide] the figure was 306 nM; with `COc1nc(OCC(F)F)c(F)cc1NS(=O)(=O)c1cnc2nc(Br)ccn12` [Example 105, 7-bromo-N-[6-(2,2-difluoroethoxy)-5-fluoro-2-methoxy-3-pyridyl]imidazo[1,2-a]pyrimidine-3-sulfonamide], 27 nM; with `COc1nc(OCC(F)F)c(F)cc1NS(=O)(=O)c1cnc2cc(C(C)(C)O)ccn12` [Example 106, N-[6-(2,2-difluoroethoxy)-5-fluoro-2-methoxy-3-pyridyl]-7-(1-hydroxy-1-methyl-ethyl)imidazo[1,2-a]pyridine-3-sulfonamide], 38 nM. As for `COc1nc(OCC(F)F)c(F)cc1NS(=O)(=O)c1cnc2n1CC[C@@H](C)C2` [Example 108, (7R)—N-[6-(2,2-difluoroethoxy)-5-fluoro-2-methoxy-3-pyridyl]-7-methyl-5,6,7,8-tetrahydroimidazo[1,2-a]pyridine-3-sulfonamide], the figure is 16 nM. As for `COc1nc(OCC(F)F)c(F)cc1NS(=O)(=O)c1cnc2n1CC[C@H](C)C2` [Example 109, (7S)—N-[6-(2,2-difluoroethoxy)-5-fluoro-2-methoxy-3-pyridyl]-7-methyl-5,6,7,8-tetrahydroimidazo[1,2-a]pyridine-3-sulfonamide], the half-maximal inhibitory concentration (IC50) stood at 35 nM.
